Experimental data from patent US20130303619A1, “Antibacterial Compositions” (priority 2009, published 2013).
Entries after “also recorded” stand apart in the source; their conditions may differ.

What was measured:
[1] = tested on: LL-37 expression by OBA9 cells; assay: LL-37 expression by OBA9 cells with Sepharose-coupled benzoic acid isomers; assay type: cell-based, human; conditions: isomer coupled to NBS-activated Sepharose gel
From the text: In order to investigate the structure-function relationship underlying EGCG-mediated induction of LL-37 from human gingival epithelial cell line OBA9, different isomers of benzoic acids are examined for their effects on the LL-37 expression by OBA9 cells. Each isomer of benzoic acids is coupled to NBS-activated Sepharose gel (Pierce) using a cross-linker, 1-Ethyl-3-[3-dimethylaminopropyl]carbodiimide (EDC, Pierce). The isomers of benzoic acids include 1) 2,6-di-hydroxy benzoic acid, 2) 2,3,4-tri-hydroxy benzoic acids, 3) 3,4,5-tri-hydroxy benzoic acids, and 4) 2,4,6-tri-hydroxy benzoic acids.

[2] = target: T1, DEAD box polypeptide 5 (DDX5) (Homo sapiens, UniProt P17844); assay: Pull down assay with benzoic acid-coupled beads and OBA9 cell lysate, Mass-Spec; assay type: binding; conditions: beads incubated with OBA9 cell lysate
T1 construct: endogenous in cells; host or cells: OBA9 human gingival epithelial cell line (lysate)
From the text: FIG. 1 is a schematic showing a pull down assay to determine counter ligand of benzoic acids expressed on OBA9 cells is DDX5. OBA9 cells were harvested and dissolved in lysis buffer. The resulting cell lysis solution was reacted with Sephadex beads conjugated with 2,6-dihydroxy benzoic acid (DHBC) and 2,3,4-trihydroxy benzoic acid (THBC). The cellular components pulled down with beads were separated in SDS-PAGE gel, and stained with Coomassie blue. The 35 kD and 70 kD bands specific to 2,3,4-THBC were subjected to Mass-Spec analysis at Tufts University Core Facility. The procedure for pull down assay includes preparation of cell lysate from gingival epithelial cell (OBA9) culture; preparation of beads conjugated with tri-hydroxy benzoic acid (THBC); incubation of beads with OBA9 cell lysate; remove unbound protein by washing beads; the proteins bound to beads are separated in SDS-PAGE; distinct bands to 2,3,4-THBC are sent for Mass-Spec service; and identification of molecular finger print of 2,3,4-THBC binding ligand.
FIG. 2 is a schematic including the molecular finger print found in 70 kD band specific to 2,3,4-THDC that is DDX5 (SEQ ID NO: 1). The 35 kD, 70 kD and 90 kD bands specific to 2,3,4-THBC were subjected to Mass-Spec analysis service. […] Result data sheet that identified DDX5 in 70 kD band is shown.
In order to confirm if LL-37 induction in epithelial cells by EGCG is dependent on the activation of cell ligand (either cytoplasm or cell surface), or previously known anti-oxidant effects by EGCG, 3,4,5-tri-hydroxy benzoic acid-coupled beads and control 2,6-di-hydroxy benzoic acid-coupled beads are utilized to pull down the possible ligand for 3,4,5-tri-hydroxy benzoic acid. After incubation of each bead with cell lysate of OBA9, the beads are washed, and the cellular materials that bind to the beads are separated in SDS-PAGE. At least 3 bands (MW 35 kD, 70 kD and 90 kD), which are distinct to 3,4,5-tri-hydroxy benzoic acid, are detected, as compared to the other beads (control, 2,6-di-hydroxy benzoic acid and control plain beads). […]

LL-37 from OBA9 cells = assay: In vitro induction of LL-37 protein (ELISA) from OBA9 cells; assay type: cell-based, human; conditions: 20 ug/ml
Protocol: (§1) Using ELISA systems to detect LL-37 (Forsyth in-house) and hBD2 (Peprotech), 33 natural compounds (20 ug/ml) are examined for their ability to induce LL-37 and hBD2 from OBA9 cells. Although the sensitivity of the hBD2 ELISA is higher than that of LL-37 ELISA (10 pg/ml vs 1 ng/ml, respectively), the induction of LL-37 is more prominent than hBD2 (FIG. 2 A&B, LL-37; C&D, hBD2). […] Bactericidal effects of LL-37 and hBD2 are, in general, potent.
The trihydroxybenzoate derivatives of the Invention and rosemarinic acid, courmarin, catechin gallate, epicatechin gallate, epigallocatechin, and tannic acid are tested to induce LL-37 from OBA9 cells in the absence of EGCG.

[3] = tested on: Actinobacillus actinomycetemcomitans Y4 (Aa Y4); assay: Bactericidal effect of culture supernatant of treated OBA9 cells; assay type: cell-based; conditions: 20 ug/ml; compared with non-treated, catechin- or 2,4-dihydroxy benzoic acid-treated OBA9 supernatant
Protocol: The culture supernatant isolate from OBA9 is treated with 1) EGCG, 2) catechin, 3) 2,4-dihydroxy benzoic acid, and 4) 3,4,5-tri-hydroxy benzoic acid (20 ug/ml, respectively) and examined for their bactericidal effects on Actinobacillus actinomycetemcomitans Y4 (Aa Y4).

[4] = tested on: LL-37 protein in cheek epithelial cells; assay: LL-37 protein expression by cheek epithelium (Western blot); assay type: in vivo, human; conditions: isolated cheek cells, anti-LL-37 monoclonal antibody
From the text: (§2) Cheek epithelium is utilized for monitoring LL-37 mRNA and protein expression to determine if Trihydroxybenzoate Derivatives of the Invention can induce LL-37 in vivo. […] The isolated cheek cells are also subjected to Western blot analysis for protein expression of LL-37 by cheek epithelium using anti-LL-37 monoclonal antibody. The expression of both the proform (18 kD, also termed as hCAP18) and secreted form (4.5 kD) of LL-37 (12) in cheek epithelial cells is induced by Trihydroxybenzoate Derivatives of the Invention (e.g., EGCG (95% SIGMA), or by EGCG (90% Teavigo)).

[5] = tested on: LL-37 mRNA expression in OBA9 cells; assay: LL-37 mRNA expression in human gingival epithelial cells; assay type: cell-based; conditions: 4-hour exposure, 0.1, 1.0 and 10 ug/ml
Protocol: (§3) Both LL-37 and hBD2 mRNA expression in OBA9 cells are induced after a 4-hour exposure to green tea polyphenol extract, Teaflan 90S (EGCG 50%, ECG 13%), and purified EGCG (95% pure, SIGMA) at concentrations of 0.1, 1.0 and 10 ug/ml. EGCG increases the production of LL-37 and hBD2 at the mRNA level in the human gingival epithelial cell line OBA9 (FIG. 1) as well as the human lung carcinoma cell line A549.

[6] = tested on: hBD2 mRNA expression in OBA9 cells; assay: hBD2 mRNA expression in human gingival epithelial cells; assay type: cell-based; conditions: 4-hour exposure, 0.1, 1.0 and 10 ug/ml
Protocol: as §3

LL-37 mRNA in A549 = assay: LL-37 mRNA level in lung carcinoma cell line; assay type: cell-based; conditions: human lung carcinoma cell line A549
Protocol: as §3

hBD2 mRNA in A549 = assay: hBD2 mRNA level in lung carcinoma cell line; assay type: cell-based; conditions: human lung carcinoma cell line A549
Protocol: as §3

[7] = tested on: LL-37 mRNA in cheek epithelial cells; assay: In vivo LL-37 mRNA expression by human cheek epithelial cells after mouthwash (RT-PCR); conditions: mouthwash with EGCG (40 ug/ml), after only 5 minutes from application
From the text: as §2

LL37 mRNA in OBA9 cells = assay: EGCG-induced LL37 mRNA expression in OBA9 cells with or without DDX5 RNAi (RT-PCR); assay type: cell-based, human; conditions: EGCG 40 ng/ml, 30 minutes
Protocol: (§4) Our hypothesis that THBC induction of LL-37 expression is mediated via binding to DDX5 is further supported by the finding that inhibition of DDX5 expression in gingival epithelial cells (OBA9) reduces EGCG-mediated LL-37 expression. Confluent OBA9 cells in a tissue culture plate are treated with or without DDX5-specific siRNA sequences (three different siRNA sequences specific to DDX5 are examined). After 24 h and 48 h incubation, total RNA and proteins are extracted, respectively, from the OBA9 cells. […] The OBA9 cells pre-incubated with non-target siRNA and DDX5-siRNA for 48 hours are restimulated with EGCG (40 ng/ml) for 30 min, and mRNA expression for LL-37 and […] was detected by RT-PCR. […] Effects of DDX5-siRNA treatment on EGCG-mediated LL-37 protein expression by OBA9 cells is measured by ELISA.
After treatment of OBA9 cells with control non-target siRNA or DDX5-siRNA (#A) for 48 hours, the OBA9 cells were incubated with or without EGCG (40 ng/ml) for 30 minutes. The total RNA isolated from the OBA9 cells was subjected to RT-PCR for LL37 mRNA as well as internal control β-actin mRNA.

[8] = tested on: LL37 protein in OBA9 cells; assay: EGCG-induced LL37 protein expression in OBA9 cells with or without DDX5 RNAi (ELISA); assay type: cell-based, human; conditions: OBA9 culture supernatant, EGCG 40 ng/ml, 30 min to 24 hours
Protocol: as §4
The OBA9 cells which were pre-treated with control non-target siRNA or DDX5-siRNA (#A) for 48 hours, as shown in 1-B, were incubated with EGCG (40 ng/ml) for different periods from 30 min to 24 hours. The supernatant harvested from the OBA9 cell culture was subjected to ELISA for LL37 protein.

LL-37 in OBA9 cells = assay: EGCG-induced LL-37 (ELISA) in OBA9 cells over expressing DDX5; assay type: cell-based, human; conditions: EGCG 40 ng/ml, 2 hours
Protocol: The OBA9 cells transfected with either DDX5 over-expression vector (pK0203) or control empty vector (pKO108) were cultured for 48 h. Thereafter, the OBA9 cells were incubated with or without EGCG (40 ng/ml) for 2 hours, and the culture supernatant was subjected to ELISA for the detection of LL-37.

hBD2 from OBA9 cells = assay: In vitro induction of hBD2 protein (ELISA) from OBA9 cells; assay type: cell-based, human; conditions: 20 ug/ml
Protocol: as §1

T1 sequence (P17844 whole entry): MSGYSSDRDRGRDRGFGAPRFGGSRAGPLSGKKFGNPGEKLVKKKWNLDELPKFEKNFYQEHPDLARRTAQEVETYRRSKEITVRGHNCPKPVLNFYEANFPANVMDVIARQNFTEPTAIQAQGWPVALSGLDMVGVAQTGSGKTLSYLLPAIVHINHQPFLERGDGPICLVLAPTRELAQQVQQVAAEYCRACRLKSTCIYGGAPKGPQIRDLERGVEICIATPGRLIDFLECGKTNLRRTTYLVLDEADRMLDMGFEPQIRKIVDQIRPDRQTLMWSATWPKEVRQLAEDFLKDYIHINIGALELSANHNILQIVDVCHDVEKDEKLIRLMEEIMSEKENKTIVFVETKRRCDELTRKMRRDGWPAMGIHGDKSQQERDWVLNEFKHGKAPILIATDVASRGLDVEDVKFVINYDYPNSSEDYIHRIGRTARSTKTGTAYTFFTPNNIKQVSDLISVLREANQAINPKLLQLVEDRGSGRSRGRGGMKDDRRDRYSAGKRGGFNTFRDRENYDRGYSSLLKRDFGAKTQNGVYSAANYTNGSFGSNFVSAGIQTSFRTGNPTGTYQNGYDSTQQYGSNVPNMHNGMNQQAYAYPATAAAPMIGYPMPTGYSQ

O=C(O)c1ccc(O)c(O)c1O [2,3,4-tri-hydroxy benzoic acids, 2,3,4-trihydroxybenzoic acid]
induction of LL-37 expression by OBA9 cells [1]: show the induction of LL-37 expression
binding to DDX5 (pull down, 70 kD band) [2]: only found in 2,3,4-THDC beads

O=C(O)c1c(O)cc(O)cc1O [2,4,6-tri-hydroxy benzoic acids, reference compound]
induction of LL-37 expression by OBA9 cells [1]: not

O=C(O)c1c(O)cccc1O [2,6-di-hydroxy benzoic acids, 2,6-dihydroxy benzoic acid, reference compound]
induction of LL-37 expression by OBA9 cells [1]: not

O=C(O)c1cc(O)c(O)c(O)c1 [3,4,5-tri-hydroxy benzoic acid, 3,4,5-trihydroxybenzoic acid]
induction of LL-37 (ELISA) (LL-37 from OBA9 cells): more potent than 3,4,-dihydroxy benzoate
bactericidal effects of culture supernatant of treated OBA9 cells on Aa Y4 [3]: more bactericidal effects
induction of LL-37 expression by OBA9 cells [1]: show the induction of LL-37 expression
binding to DDX5 (pull down, 70 kD band) [2]: binds to DDX5 expressed in gingival epithelial cells with high affinity

O=C(O[C@@H]1Cc2c(O)cc(O)cc2O[C@@H]1c1cc(O)c(O)c(O)c1)c1cc(O)c(O)c(O)c1 [EGCG (90% Teavigo)]
expression of proform (18 kD) and secreted form (4.5 kD) of LL-37 in cheek epithelial cells (Western blot) [4]: induced

O=C(O[C@@H]1Cc2c(O)cc(O)cc2O[C@@H]1c1cc(O)c(O)c(O)c1)c1cc(O)c(O)c(O)c1 [EGCG, epigallocatechin gallate]
LL-37 mRNA expression [5]: induced
hBD2 mRNA expression [6]: induced
production of LL-37 at the mRNA level (LL-37 mRNA in A549): increases
production of hBD2 at the mRNA level (hBD2 mRNA in A549): increases
bactericidal effects of culture supernatant of treated OBA9 cells on Aa Y4 [3]: more bactericidal effects
LL-37 mRNA expression by cheek epithelial cells (RT-PCR) [7]: up-regulated
expression of proform (18 kD) and secreted form (4.5 kD) of LL-37 in cheek epithelial cells (Western blot) [4]: induced
binding to DDX5 (pull down, 70 kD band) [2]: binds to DDX5
LL37 mRNA expression induced by EGCG (LL37 mRNA in OBA9 cells): induced
LL37 protein expression after EGCG stimulation (ELISA) [8]: detected as early as 30 min until 24 hours; also recorded: increased in a time dependent manner
LL-37 expression induced by EGCG (ELISA) (LL-37 in OBA9 cells; OBA9 with no vector, empty vector pK0108 or pK0203): induced the LL-37 expression in all three conditions
LL-37 expression induced by EGCG in OBA9 transfected with DDX5 over-expression vector versus no vector or empty vector (LL-37 in OBA9 cells; P<0.05, Student t test): significantly higher

CCCCCCCCCCCCCC(=O)O[C@@H]1[C@@H](C)[C@@]2(O)[C@@H](C=C(CO)C[C@]3(O)C(=O)C(C)=C[C@@H]23)[C@@H]2C(C)(C)[C@]12OC(C)=O [PMA]
induction of LL-37 (ELISA) (LL-37 from OBA9 cells): induced LL-37
induction of hBD2 (ELISA) (hBD2 from OBA9 cells): minimal induction activities

O=C(/C=C/c1ccc(O)c(O)c1)O[C@H](Cc1ccc(O)c(O)c1)C(=O)O [Rosemarinic acid]
induction of LL-37 (ELISA) (LL-37 from OBA9 cells): little or no induction

O=c1ccc2ccccc2o1 [courmarin]
induction of LL-37 (ELISA) (LL-37 from OBA9 cells): little or no induction

Poly IC
induction of LL-37 (ELISA) (LL-37 from OBA9 cells): induced LL-37
induction of hBD2 (ELISA) (hBD2 from OBA9 cells): minimal induction activities
